Test results: ChEMBL document CHEMBL3886711, “Substituted tetrahydrocarbazole and carbazole carboxamide compounds” (2016)
Where “and” joins values, the source holds several entries; their conditions need not be identical. Equal values may be shown once.

Target: Tyrosine-protein kinase JAK2 (Homo sapiens, UniProt O60674)
Test: Jak2 Tyrosine Kinase Assay: The assays were performed in V-bottom 384-well plates. The final assay volume was 30 μl prepared from 15 μl additions of enzyme and substrates (fluoresceinated peptide and ATP) and test compounds in assay buffer (100 mM HEPES pH 7.4, 10 mM MgCl2, 25 mM beta-glycerolphosphate, […] Brij 35 surfactant and 4 mM DTT). The reaction was initiated by the combination of Jak2

Chain of Tyrosine-protein kinase JAK2 (O60674 whole entry): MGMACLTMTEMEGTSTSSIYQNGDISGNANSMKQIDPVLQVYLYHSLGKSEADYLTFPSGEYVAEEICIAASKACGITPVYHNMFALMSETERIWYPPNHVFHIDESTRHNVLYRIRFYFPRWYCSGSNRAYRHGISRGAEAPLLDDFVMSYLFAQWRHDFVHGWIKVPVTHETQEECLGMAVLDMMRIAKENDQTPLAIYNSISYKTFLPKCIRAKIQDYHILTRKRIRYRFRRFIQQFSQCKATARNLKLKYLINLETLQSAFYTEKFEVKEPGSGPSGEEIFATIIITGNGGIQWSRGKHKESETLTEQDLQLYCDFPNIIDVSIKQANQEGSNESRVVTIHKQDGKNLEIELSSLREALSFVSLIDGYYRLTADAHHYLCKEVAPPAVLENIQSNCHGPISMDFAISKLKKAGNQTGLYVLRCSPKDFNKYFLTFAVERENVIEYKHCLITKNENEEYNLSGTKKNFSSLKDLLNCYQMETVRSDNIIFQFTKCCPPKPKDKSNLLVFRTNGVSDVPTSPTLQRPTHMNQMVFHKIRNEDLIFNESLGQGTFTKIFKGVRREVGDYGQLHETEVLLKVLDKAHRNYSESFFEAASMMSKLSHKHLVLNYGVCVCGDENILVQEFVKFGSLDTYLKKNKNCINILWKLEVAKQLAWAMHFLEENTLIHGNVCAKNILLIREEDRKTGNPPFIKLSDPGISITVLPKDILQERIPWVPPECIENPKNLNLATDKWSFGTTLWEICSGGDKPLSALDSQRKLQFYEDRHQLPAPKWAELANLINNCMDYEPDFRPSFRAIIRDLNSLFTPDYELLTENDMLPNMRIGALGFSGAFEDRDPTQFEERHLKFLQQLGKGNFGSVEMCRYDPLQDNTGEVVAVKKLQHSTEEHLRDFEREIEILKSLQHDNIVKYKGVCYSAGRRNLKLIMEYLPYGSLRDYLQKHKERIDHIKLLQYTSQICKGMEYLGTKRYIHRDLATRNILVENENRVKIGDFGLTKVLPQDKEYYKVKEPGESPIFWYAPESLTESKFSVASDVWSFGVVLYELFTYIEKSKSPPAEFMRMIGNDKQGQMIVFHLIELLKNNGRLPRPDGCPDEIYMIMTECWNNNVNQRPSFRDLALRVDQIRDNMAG

`Cc1c(-c2c(F)cc(C(N)=O)c3[nH]c4cc(C(C)(C)O)ccc4c23)cccc1-n1c(=O)[nH]c2c(F)cccc2c1=O` gave an IC50 of 1.7 µM.
In the case of `Cc1c(-c2c(Cl)cc(C(N)=O)c3[nH]c4cc(C(C)(C)O)ccc4c23)cccc1-n1c(=O)cc2c(Cl)cccn2c1=O`, the IC50 is reported as 1.4 µM and 0.97 µM.
